# “And” between values parts separate entries of the source, which are not always exact repeats. Identical values can stand only once. Like-named read-outs stand apart in the source and are kept apart here.
# Key:
# [1] = tested on: male Swiss-Webster mice; test: Rotarod impairment test before MES testing; format: in vivo, mouse; conditions: 300 mg/kg p.o.
# Protocol: (§1) Test compounds (Compound S, Compound W, the S-enantiomer of Compound AA, the R-enantiomer of Compound AA, Compound HH, Compound JJ, and Compound MM) were dissolved in saline containing 0.5% methylcellulose. To determine time to peak effect, 300 mg/kg of each of the test compounds was suspended in 0.5% methylcellulose in saline and administered orally to a group of 20 mice. For comparative purposes, isovaleramide was also tested. At various times (0.25, 0.5, 1, 2, and 4 hours) after p.o. administration, individual mice were placed on the rotarod and tested for their ability to maintain balance on a rotating (6 rpm) 2.5-cm diameter knurled rod for 60 seconds. Mice that fell three times in this 60-second trial were considered impaired.
# [2] = tested on: male Swiss-Webster mice; test: Maximal electroshock (MES)-induced tonic extension seizure test; format: in vivo, mouse; conditions: for # P/# T (protected/tested): 300 mg/kg p.o.
# Protocol: In the MES test, a substance is administered orally (p.o.) and is tested for efficacy against maximal electroshock (MES)-induced tonic extension seizures. Adult male Swiss-Webster mice (each 20-25 g of body weight) were used. The mice were housed in Association for the Assessment and Accreditation of Laboratory Animal Care-approved facilities under a constant 12-hour light/dark cycle with a constant temperature of 21° C.-23° C. and a relative humidity of 30% to 50%. All animals were permitted free access to standard laboratory chow (Prolab RMH 3000; PMI Nutrition International, LLC, Brentwood, Mo.) and water, except when removed from their home cages for testing. All mice were handled in a manner consistent with the recommendations in the National Research Council Publication Guide for the Care and Use of Laboratory Animals.
# as §1
# Following rotarod testing, the mice were tested in the maximal electroshock (MES)-induced tonic extension seizures test. For this test, a drop of electrolyte solution (0.5% butacaine sulfate in 0.9% saline) was placed on the eyes of each mouse prior to placement of corneal electrodes. The mice were restrained by gripping the loose skin on their dorsal surface and saline-coated corneal electrodes were held lightly against the two corneas. Each mouse received an electrical stimulation (50 mAmp, 50 Hz current, 0.2 sec) delivered through a silver-coated corneal electrode using an electroshock machine as originally described by Woodbury and Davenport (Arch Int. Pharmacodyn. Ther., 92:97-104, 1952). […] A tonic seizure was defined as a hindlimb extension in excess of 90 degrees from the plane of the body. Results were treated in a quantal manner. […] ED50's (the effective dose at which 50% of the mice were protected) were determined for Compounds W and HH by administering various doses (30, 100, 300 mg/kg) at the previously determined time to peak effect, as shown in Table 11.
# [3] = tested on: Frings audiogenic seizure-susceptible mouse; test: Frings audiogenic seizure assay (protection against sound-induced tonic hindlimb extension); format: in vivo; conditions: for Seizure Score ± S.E.M.: score 1-5; for ED50: Mus musculus, po
# Protocol: The anticonvulsant activity of compound S ((S)-(+)-2,2-dimethylcyclopropane-carboxamide) was tested using the Frings audiogenic seizure-susceptible mouse. […] Compound S, which is a solution at 300 mg/kg and a suspension at 600 mg/kg, was administered to the mice at the doses indicated in Tables 1-3. Compound S was obtained from Sigma-Aldrich Chemical Co. (Aldrich catalog number: 43,463-9).
# At the time of testing, individual mice were placed into a round Plexiglas chamber and exposed to a sound stimulus of 110 decibels, 11 kHz, for 20 seconds. Mice not displaying tonic hindlimb extensions upon exposure to the sound stimulus were considered protected. In addition, the seizure score for each mouse was recorded as: (1) running for less than 10 seconds; (2) running for greater than 10 seconds; (3) clonic activity of limbs and/or vibrissae; (4) forelimb extension/hindlimb flexion; and (5) hindlimb extension. The average seizure score was calculated for each group of mice used in the dose-response study.
# The anticonvulsant activity of compounds I, W, X, and AA was tested using the Frings audiogenic seizure-susceptible mouse model as described in Example 23. […] The therapeutic index relates to separation between therapeutic efficacy and CNS toxicity as measured by motor impairment in the rotarod performance test.
# [4] = Rotarod test of motor impairment (toxicity) in the Frings study; format: in vivo; conditions: Frings, mouse, in vivo, po, rotarod, Table 4
# Protocol: (§2) At each dose, the mice were also tested on a rotarod for testing of motor impairment (toxicity). Testing for motor impairment on the rotarod involved placing a mouse for a three-minute trial period on a one-inch diameter rod rotating at six revolutions per minute. If the mouse fell off of the rotating rod three times within the three-minute time period, the dose was considered a toxic response.
# (§3) The therapeutic index relates to separation between therapeutic efficacy and CNS toxicity as measured by motor impairment in the rotarod performance test.
# [5] = tested on: Frings mice; test: as above; format: in vivo; conditions: for separation between efficacy and CNS toxicity: as measured by rotarod impairment; for Therapeutic Index: Frings, mouse, in vivo, po
# Protocol: as §2, §3
# [6] = humans, cited from earlier work
# [7] = Table 5, read-out: ED50 Oral Administration
smiles,measurement,setting,value
C[C@H](C(N)=O)C(C)(C)C [Compound MM],# I/# T (impaired/tested),[1]; 0.25 hours,2/4
same,# I/# T (impaired/tested),[1]; 0.5 hours,3/4
same,# I/# T (impaired/tested),[1]; 1 hour,4/4
same,# I/# T (impaired/tested),[1]; 2 hours,3/4
same,# I/# T (impaired/tested),[1]; 4 hours,3/4
same,# P/# T (protected/tested),[2]; 0.25 hours,0/4
same,# P/# T (protected/tested),[2]; 0.5 hours,1/4
same,# P/# T (protected/tested),[2]; 1 hour,2/4
same,# P/# T (protected/tested),[2]; 2 hours,3/4
same,# P/# T (protected/tested),[2]; 4 hours,3/4
"CC1(C)C[C@@H]1C(N)=O [Compound S, (S)-(+)-2,2-dimethylcyclopropanecarboxamide]",# I/# T (impaired/tested),[1]; 0.25 hours,0/8
same,# I/# T (impaired/tested),[1]; 0.5 hours,1/8
same,# I/# T (impaired/tested),[1]; 1 hour,1/8
same,# I/# T (impaired/tested),[1]; 2 hours,0/4
same,# I/# T (impaired/tested),[1]; 4 hours,0/4
same,#Protected/#Tested 30 min,"[3]; 30 mg/kg p.o., Table 1",no mice were protected and 0/4
same,#Protected/#Tested 120 min,"[3]; 30 mg/kg p.o., Table 1",no mice were protected and 0/4
same,#Prot./#Tested at 15 min,"[3]; 50 mg/kg p.o., Table 3",none of the mice were protected and 0/8
same,Seizure Score ± S.E.M.,[3]; 50 mg/kg p.o.,5 ± 0
same,#Prot./#Tested at 15 min,"[3]; 60 mg/kg p.o., Table 3",5/8
same,mice protected,"[3]; 60 mg/kg p.o., 15 minutes, Table 3",62.5%
same,Seizure Score ± S.E.M.,[3]; 60 mg/kg p.o.,2.1 ± 0.9
same,#Prot./#Tested at 15 min,"[3]; 75 mg/kg p.o., Table 3",7/8
same,mice protected,"[3]; 75 mg/kg p.o., 15 minutes, Table 2",75%
same,mice protected,"[3]; 75 mg/kg p.o., 15 minutes, Table 3",87.5%
same,Seizure Score ± S.E.M.,[3]; 75 mg/kg p.o.,1.1 ± 0.6
same,# Prot./# Tested,"[3]; 75 mg/kg p.o., ¼ hr, Table 2",¾
same,# Prot./# Tested,"[3]; 75 mg/kg p.o., ½ hr, Table 2",no mice were protected and 0/4
same,#Prot./#Tested at 15 min,"[3]; 100 mg/kg p.o., Table 3",6/8
same,mice protected,"[3]; 100 mg/kg p.o., 15 minutes, Table 2",75%
same,mice protected,"[3]; 100 mg/kg p.o., 15 minutes, Table 3",75%
same,#Protected/#Tested 30 min,"[3]; 100 mg/kg p.o., Table 1",3/4
same,mice protected,"[3]; 100 mg/kg p.o., 30 minutes, Table 1",75%
same,mice protected,"[3]; 100 mg/kg p.o., 30 minutes, Table 2",75%
same,# Prot./# Tested,"[3]; 100 mg/kg p.o., 1 hr, Table 2",no mice were protected and 0/4
same,#Protected/#Tested 120 min,"[3]; 100 mg/kg p.o., Table 1",1/4
same,# Prot./# Tested,"[3]; 100 mg/kg p.o., 2 hrs, Table 2",1 mouse was protected and 1/4
same,mice protected,"[3]; 100 mg/kg p.o., 120 minutes, Table 1",25%
same,Seizure Score ± S.E.M.,[3]; 100 mg/kg p.o.,1.6 ± 0.8
same,# Prot./# Tested,"[3]; 100 mg/kg p.o., ¼ hr, Table 2",¾
same,# Prot./# Tested,"[3]; 100 mg/kg p.o., ½ hr, Table 2",3/4
same,#Prot./#Tested at 15 min,"[3]; 200 mg/kg p.o., Table 3",all the mice were protected and 8/8
same,Seizure Score ± S.E.M.,[3]; 200 mg/kg p.o.,0.1 ± 0.1
same,#Protected/#Tested 30 min,"[3]; 300 mg/kg p.o., Table 1",all of the tested mice were protected and 4/4
same,#Protected/#Tested 120 min,"[3]; 300 mg/kg p.o., Table 1",all of the tested mice were protected and 4/4
same,average seizure score with dose,"[3]; 50-200 mg/kg p.o., Table 3",generally decreased with increasing doses
same,ED50,"[3]; 0.25 h, p.o., tested at 15 min, 95% confidence interval 50.16-78.92, read-out: ED50 for protection against tonic extension",64.9 mg/kg
same,ED50,"[3]; Table 4, read-out: ED50",64.8 mg/kg
same,time at which anticonvulsant activity was observed,[3]; after oral administration,as early as 15 minutes and up to 2 hours
same,anticonvulsant activity (summary),[3]; p.o.,demonstrated activity as an anticonvulsant
same,# P/# T (protected/tested),[2]; 0.25 hours,0/8
same,# P/# T (protected/tested),[2]; 0.5 hours,0/8
same,# P/# T (protected/tested),[2]; 1 hour,1/8
same,# P/# T (protected/tested),[2]; 2 hours,0/4
same,# P/# T (protected/tested),[2]; 4 hours,0/4
same,TD50 at 15 min,[4],> 600 mg/kg
same,#Toxic/#Tested 30 min,"[5]; 30 mg/kg p.o., rotarod",0/4
same,#Toxic/#Tested 120 min,"[5]; 30 mg/kg p.o., rotarod",0/4
same,#Toxic/#Tested 30 min,"[5]; 100 mg/kg p.o., rotarod",0/4
same,#Toxic/#Tested 120 min,"[5]; 100 mg/kg p.o., rotarod",0/4
same,#Toxic/#Tested 30 min,"[5]; 300 mg/kg p.o., rotarod",0/4
same,#Toxic/#Tested 120 min,"[5]; 300 mg/kg p.o., rotarod",0/4
same,#Toxic/#Tested at 15 min,"[5]; 600 mg/kg p.o., 15 min, rotarod",1/8
same,mice with a toxic response,"[5]; 600 mg/kg p.o., 15 minutes, rotarod",12.5%
same,separation between efficacy and CNS toxicity,[5]; p.o.,10 fold
same,toxic responses on the rotarod,"[5]; doses of Table 1 (30, 100, 300 mg/kg p.o.), 30 or 120 minutes",none of the doses produced toxic responses
same,separation between activity and toxicity (summary),[5]; p.o.,good separation between activity and toxicity
same,toxicity (summary),"[5]; p.o., rotarod",low toxicity
"C[C@H]1CC[C@H](C(N)=O)CC1 [Compound W, trans-4-methylcyclohexanecarboxamide]",ED50,[3]; [7],164 mg/kg
same,ED50 Oral Administration,"[2]; p.o., at time to peak effect, MES",Inactive at 300 mg/kg
same,Therapeutic Index,[5],>4-fold
"CC1CCC(CC(N)=O)CC1 (stereo not drawn) [Compound X, 2-(4-methylcyclohexyl)acetamide]",ED50,[3]; [7],86.4 mg/kg
same,Therapeutic Index,[5],>6-fold
"CC(C)CC(N)=O [Isovaleramide, isovaleramide]",ED50,"[3]; Table 4, read-out: ED50",206 mg/kg
same,ED50,"[2]; Mus musculus, po, at time to peak effect, MES, read-out: ED50 Oral Administration",913 mg/kg
same,separation between efficacy and CNS toxicity,[5]; p.o.,5 fold
same,half-life,"[6]; oral, doses ranging from 100 mg to 1600 mg",about 2.5 hours
same,absorption,[6]; orally administered,readily absorbed from the gastrointestinal tract

# Source: patent US20060025477A1, “Analogs of isovaleramide, a pharmaceutical composition including the same, and a method of treating central nervous system conditions or diseases” (priority 2004, published 2006)
